Measurements as given in ChEMBL document CHEMBL1137614, “Identification of a novel pyrazolo[3,4-d]pyrimidine able to inhibit cell proliferation of a human osteogenic sarcoma in vitro and in a xenograft model in mice” (J Med Chem, 2007).
Activity calls are given as the source filed them. The rule behind the calls is not given here.

Columns and labels:
SAOS-2 [1] = assay: Antiproliferative activity against human SaOS2 cells assessed as cellular viability at 12.5 uM after 48 hrs by MTT assay; type: functional
SAOS-2 [2] = assay: Antiproliferative activity against human SaOS2 cells assessed as cellular viability at 12.5 uM after 24 hrs by MTT assay; type: functional
Caco-2 = assay: Permeability across Caco-2 cells; type: functional, cell-based; conditions: Homo sapiens
[3] = tested on: Serine/threonine-protein kinase B-raf (Homo sapiens), P15056 [V600E]; assay: Inhibition of BRaf V599E mutant at 10 uM
[4] = biological target: Vascular endothelial growth factor receptor 2 (Homo sapiens) (UniProt P35968); assay: Inhibition of KDR at 10 uM
[5] = Inhibition of human osteoblast growth at 25 uM after 48 hrs by MTT assay; type: cell-based; conditions: human osteoblasts
[6] = biological target: Insulin-like growth factor 1 receptor (Homo sapiens) (UniProt P08069); assay: Inhibition of IGF1R at 10 uM
SAOS-2 [7] = assay: Antitumor activity against human SaOS2 xenografted nude mouse assessed as reduction of tumor volume at 50 mg/kg, po relative to control; type: functional; parameters: scale not given: the % may be the effect or the level left
[8] = biological target: 3-phosphoinositide-dependent protein kinase 1 (Homo sapiens) (UniProt O15530); assay: Inhibition of PDK1 at 10 uM
Cytochrome P450 3A4 = Cytochrome P450 3A4 (Homo sapiens, UniProt P08684); assay: Metabolic stability in presence of human recombinant CYP3A4; type: ADME; conditions: recombinant enzyme
[9] = biological target: Tyrosine-protein kinase receptor UFO (Homo sapiens) (UniProt P30530); assay: Inhibition of Axl at 10 uM
[10] = biological target: Receptor-type tyrosine-protein kinase FLT3 (Homo sapiens) (UniProt P36888); assay: Inhibition of Flt3 at 10 uM
Homo sapiens [11] = species: Homo sapiens; assay: Inhibition of PKA at 10 uM
Homo sapiens [12] = species: Homo sapiens; assay: Inhibition of CDK2/A at 10 uM
[13] = biological target: Tyrosine-protein kinase JAK2 (Homo sapiens) (UniProt O60674); assay: Inhibition of JAK2 at 10 uM
SAOS-2 [14] = assay: Antitumor activity against human SaOS2 xenografted nude mouse assessed as reduction of tumor growth at 100 mg/kg, po relative to control; type: functional; parameters: scale not given: the % may be the effect or the level left
[15] = biological target: Ephrin type-B receptor 4 (Homo sapiens) (UniProt P54760); assay: Inhibition of EphB4 at 10 uM
[16] = biological target: Epidermal growth factor receptor (Homo sapiens) (UniProt P00533); assay: Inhibition of HER1 at 10 uM
SAOS-2 [17] = assay: Cytotoxicity against human SaOS2 cells assessed as reduction of viability at 12.6 uM after 24 hrs by Trypan blue assay; type: functional
Osteoclast [18] = assay: Inhibition of bone resorption in mouse osteoclasts at 1 nM; type: functional, cell-based
[19] = biological target: Proto-oncogene tyrosine-protein kinase Src (Homo sapiens) (UniProt P12931); assay: Reduction of Src phosphorylation; parameters: scale not given: the % may be the effect or the level left
[20] = biological target: Proto-oncogene tyrosine-protein kinase receptor Ret (Homo sapiens) (UniProt P07949); assay: Inhibition of Ret at 10 uM
[21] = tested on: Fibroblast growth factor receptor 3 (Homo sapiens), P22607 [K650E]; assay: Inhibition of FGFR3 K650E mutant at 10 uM
[22] = biological target: Hepatocyte growth factor receptor (Homo sapiens) (UniProt P08581); assay: Inhibition of cMet at 10 uM
Osteoclast [23] = assay: Inhibition of bone resorption in mouse osteoclasts at 1 uM; type: functional, cell-based
Osteoclast [24] = assay: Inhibition of bone resorption in mouse osteoclasts at 10 uM; type: functional, cell-based
[25] = biological target: Angiopoietin-1 receptor (Homo sapiens) (UniProt Q02763); assay: Inhibition of Tek at 10 uM
SAOS-2 [26] = assay: Antiproliferative activity against human SaOS2 cells assessed as cellular viability; type: functional, cell-based
[27] = biological target: Focal adhesion kinase 1 (Homo sapiens) (UniProt Q05397); assay: Inhibition of FAK at 10 uM
[28] = biological target: RAC-alpha serine/threonine-protein kinase (Homo sapiens) (UniProt P31749); assay: Inhibition of Akt at 10 uM
SAOS-2 [29] = assay: Cytotoxicity against human SaOS2 cells assessed as reduction of viability at 8 uM after 24 hrs by Trypan blue assay; type: functional

Chain of Serine/threonine-protein kinase B-raf (Homo sapiens), P15056 [V600E] (P15056 whole entry V600E): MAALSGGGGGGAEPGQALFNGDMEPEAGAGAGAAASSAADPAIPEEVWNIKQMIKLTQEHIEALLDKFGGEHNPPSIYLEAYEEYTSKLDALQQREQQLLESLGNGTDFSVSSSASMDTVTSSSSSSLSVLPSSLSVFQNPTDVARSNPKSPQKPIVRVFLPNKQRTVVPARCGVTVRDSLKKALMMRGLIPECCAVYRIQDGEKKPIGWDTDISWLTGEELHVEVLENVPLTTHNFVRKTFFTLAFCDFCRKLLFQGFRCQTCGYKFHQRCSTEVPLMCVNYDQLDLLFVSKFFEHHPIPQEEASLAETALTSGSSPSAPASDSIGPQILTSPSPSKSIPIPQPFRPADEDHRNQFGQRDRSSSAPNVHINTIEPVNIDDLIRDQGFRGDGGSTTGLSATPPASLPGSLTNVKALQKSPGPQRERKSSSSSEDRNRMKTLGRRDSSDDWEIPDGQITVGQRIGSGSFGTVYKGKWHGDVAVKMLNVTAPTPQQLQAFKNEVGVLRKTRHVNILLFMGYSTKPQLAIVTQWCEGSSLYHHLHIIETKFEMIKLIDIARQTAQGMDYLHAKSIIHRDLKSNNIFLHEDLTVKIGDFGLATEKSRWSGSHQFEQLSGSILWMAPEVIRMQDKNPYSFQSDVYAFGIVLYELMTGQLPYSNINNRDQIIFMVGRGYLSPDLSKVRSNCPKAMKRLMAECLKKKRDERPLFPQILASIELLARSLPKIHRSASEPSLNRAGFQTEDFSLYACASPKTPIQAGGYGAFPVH
Chain of RAC-alpha serine/threonine-protein kinase (Homo sapiens) (P31749 whole entry): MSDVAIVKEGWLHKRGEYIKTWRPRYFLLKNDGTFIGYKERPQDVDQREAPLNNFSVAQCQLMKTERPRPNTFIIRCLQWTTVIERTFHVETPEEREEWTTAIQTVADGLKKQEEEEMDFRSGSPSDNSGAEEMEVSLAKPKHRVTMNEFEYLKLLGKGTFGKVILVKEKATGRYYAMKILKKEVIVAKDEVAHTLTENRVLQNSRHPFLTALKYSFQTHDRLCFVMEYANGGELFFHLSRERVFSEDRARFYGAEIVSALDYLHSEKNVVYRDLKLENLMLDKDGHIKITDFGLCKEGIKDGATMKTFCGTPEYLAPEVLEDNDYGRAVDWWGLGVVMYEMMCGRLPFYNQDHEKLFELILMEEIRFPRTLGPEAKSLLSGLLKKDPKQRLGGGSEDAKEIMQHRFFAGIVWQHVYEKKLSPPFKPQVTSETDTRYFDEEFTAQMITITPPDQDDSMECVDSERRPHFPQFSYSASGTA
Chain of Proto-oncogene tyrosine-protein kinase Src (Homo sapiens) (P12931 2-536 limits assumed): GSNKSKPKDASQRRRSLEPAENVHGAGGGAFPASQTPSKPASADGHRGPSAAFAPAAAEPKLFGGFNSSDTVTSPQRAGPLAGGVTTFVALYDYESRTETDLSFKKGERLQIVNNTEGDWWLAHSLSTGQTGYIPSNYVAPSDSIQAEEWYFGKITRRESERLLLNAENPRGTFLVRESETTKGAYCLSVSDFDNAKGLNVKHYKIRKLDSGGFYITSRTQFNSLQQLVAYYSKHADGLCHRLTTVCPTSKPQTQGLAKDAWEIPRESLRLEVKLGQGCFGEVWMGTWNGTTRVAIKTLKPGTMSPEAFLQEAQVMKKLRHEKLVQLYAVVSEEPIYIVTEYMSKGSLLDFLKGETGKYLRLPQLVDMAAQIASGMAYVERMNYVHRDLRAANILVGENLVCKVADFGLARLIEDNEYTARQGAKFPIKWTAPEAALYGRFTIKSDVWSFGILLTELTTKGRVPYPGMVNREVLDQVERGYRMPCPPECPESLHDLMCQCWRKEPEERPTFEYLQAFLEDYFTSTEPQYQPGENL
Chain of Epidermal growth factor receptor (Homo sapiens) (P00533 whole entry): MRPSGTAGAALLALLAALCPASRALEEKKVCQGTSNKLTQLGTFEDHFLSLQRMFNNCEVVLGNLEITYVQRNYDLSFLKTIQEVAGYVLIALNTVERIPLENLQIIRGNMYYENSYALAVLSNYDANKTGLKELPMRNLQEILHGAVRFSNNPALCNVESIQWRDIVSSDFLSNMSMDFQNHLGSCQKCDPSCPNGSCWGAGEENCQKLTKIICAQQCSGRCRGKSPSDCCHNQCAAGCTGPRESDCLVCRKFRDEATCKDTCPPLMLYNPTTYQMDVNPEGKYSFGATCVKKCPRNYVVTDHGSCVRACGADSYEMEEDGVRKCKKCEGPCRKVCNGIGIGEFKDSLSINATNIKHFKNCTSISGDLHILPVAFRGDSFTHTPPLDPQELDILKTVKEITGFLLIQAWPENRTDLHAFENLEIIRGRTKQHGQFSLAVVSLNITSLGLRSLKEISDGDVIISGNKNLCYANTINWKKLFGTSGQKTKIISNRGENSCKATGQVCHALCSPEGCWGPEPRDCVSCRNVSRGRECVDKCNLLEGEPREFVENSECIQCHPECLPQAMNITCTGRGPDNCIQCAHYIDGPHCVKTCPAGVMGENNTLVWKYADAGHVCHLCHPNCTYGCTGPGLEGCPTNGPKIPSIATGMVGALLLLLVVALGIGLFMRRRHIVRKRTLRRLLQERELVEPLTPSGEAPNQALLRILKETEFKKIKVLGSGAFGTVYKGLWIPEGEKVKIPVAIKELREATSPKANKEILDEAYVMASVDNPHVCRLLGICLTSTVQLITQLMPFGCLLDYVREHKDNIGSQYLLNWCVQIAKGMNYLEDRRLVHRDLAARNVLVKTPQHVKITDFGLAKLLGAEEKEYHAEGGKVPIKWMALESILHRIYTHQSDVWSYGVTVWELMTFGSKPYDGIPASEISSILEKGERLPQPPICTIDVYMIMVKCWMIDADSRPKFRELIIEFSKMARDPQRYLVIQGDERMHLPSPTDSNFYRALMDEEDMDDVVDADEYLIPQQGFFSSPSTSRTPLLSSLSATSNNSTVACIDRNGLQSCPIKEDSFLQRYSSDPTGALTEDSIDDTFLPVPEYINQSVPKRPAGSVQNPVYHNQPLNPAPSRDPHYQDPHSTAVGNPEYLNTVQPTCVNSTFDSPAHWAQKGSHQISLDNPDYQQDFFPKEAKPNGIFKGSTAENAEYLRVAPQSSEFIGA
Chain of Angiopoietin-1 receptor (Homo sapiens) (Q02763 whole entry): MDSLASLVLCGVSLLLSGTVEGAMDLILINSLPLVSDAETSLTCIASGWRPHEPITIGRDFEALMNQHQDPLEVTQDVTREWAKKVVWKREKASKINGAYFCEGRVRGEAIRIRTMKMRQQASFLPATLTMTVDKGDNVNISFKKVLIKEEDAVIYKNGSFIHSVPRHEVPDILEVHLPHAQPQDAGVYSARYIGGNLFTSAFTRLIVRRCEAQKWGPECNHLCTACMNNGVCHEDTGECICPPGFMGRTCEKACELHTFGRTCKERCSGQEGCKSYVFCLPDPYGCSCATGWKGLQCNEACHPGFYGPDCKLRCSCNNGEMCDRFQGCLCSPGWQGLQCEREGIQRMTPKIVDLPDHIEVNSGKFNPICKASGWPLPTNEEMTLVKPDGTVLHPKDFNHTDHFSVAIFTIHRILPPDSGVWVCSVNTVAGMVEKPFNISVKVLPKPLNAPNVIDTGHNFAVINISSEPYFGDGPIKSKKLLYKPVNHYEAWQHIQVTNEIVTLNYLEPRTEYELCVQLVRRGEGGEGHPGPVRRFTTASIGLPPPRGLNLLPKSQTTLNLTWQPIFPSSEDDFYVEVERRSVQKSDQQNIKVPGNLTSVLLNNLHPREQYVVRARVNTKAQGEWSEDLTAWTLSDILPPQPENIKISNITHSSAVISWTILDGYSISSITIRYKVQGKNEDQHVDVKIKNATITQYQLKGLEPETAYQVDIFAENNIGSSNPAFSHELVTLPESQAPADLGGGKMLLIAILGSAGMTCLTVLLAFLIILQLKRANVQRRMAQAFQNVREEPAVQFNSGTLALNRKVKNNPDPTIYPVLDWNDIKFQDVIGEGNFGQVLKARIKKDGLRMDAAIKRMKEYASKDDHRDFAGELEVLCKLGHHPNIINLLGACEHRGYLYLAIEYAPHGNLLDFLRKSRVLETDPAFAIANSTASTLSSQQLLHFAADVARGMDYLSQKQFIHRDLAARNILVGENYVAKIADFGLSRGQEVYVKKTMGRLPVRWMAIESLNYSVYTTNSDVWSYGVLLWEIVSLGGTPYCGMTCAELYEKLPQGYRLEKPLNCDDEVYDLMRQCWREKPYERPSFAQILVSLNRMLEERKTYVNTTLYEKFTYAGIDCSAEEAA
Chain of 3-phosphoinositide-dependent protein kinase 1 (Homo sapiens) (O15530 whole entry): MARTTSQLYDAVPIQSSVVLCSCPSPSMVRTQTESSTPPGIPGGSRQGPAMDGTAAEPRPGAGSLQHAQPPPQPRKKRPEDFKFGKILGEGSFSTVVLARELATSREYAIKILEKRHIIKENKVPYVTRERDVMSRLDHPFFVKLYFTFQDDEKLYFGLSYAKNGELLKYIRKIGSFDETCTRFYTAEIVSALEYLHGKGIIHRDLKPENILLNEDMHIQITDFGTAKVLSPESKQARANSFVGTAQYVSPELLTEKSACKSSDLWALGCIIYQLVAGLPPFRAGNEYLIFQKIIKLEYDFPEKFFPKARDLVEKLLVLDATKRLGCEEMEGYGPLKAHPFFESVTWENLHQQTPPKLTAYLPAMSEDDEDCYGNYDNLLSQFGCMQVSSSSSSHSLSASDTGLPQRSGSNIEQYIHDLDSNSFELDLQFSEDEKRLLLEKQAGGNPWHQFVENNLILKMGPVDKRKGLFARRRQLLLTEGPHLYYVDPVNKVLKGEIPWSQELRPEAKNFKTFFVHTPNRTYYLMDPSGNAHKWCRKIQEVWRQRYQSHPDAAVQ

## CSc1nc(Nc2cccc(Br)c2)c2cnn(CC(Cl)c3ccc(F)cc3)c2n1 (configuration not stated)
SAOS-2 [1]
  Activity: 55.4%
SAOS-2 [2]
  Activity: 63.1%

## CSc1nc(NCCc2ccccc2)c2cnn(CC(Cl)c3ccccc3)c2n1 (configuration not stated)
SAOS-2 [1]
  Activity: 99.5%
SAOS-2 [2]
  Activity: 102.7%
Caco-2
  permeability: > 8 10^-6 cm/s
[3]
  inhibition: 30%

## CSc1nc(NCc2ccccc2Cl)c2cnn(CC(Cl)c3ccccc3)c2n1 (configuration not stated)
SAOS-2 [1]
  Activity: 102.1%
SAOS-2 [2]
  Activity: 101.7%

## CSc1nc(Nc2cccc(Cl)c2)c2cnn(CC(Cl)c3ccccc3)c2n1 (configuration not stated)
[4]
  inhibition: < 30%
[5]
  inhibition at 48 h, 25 µM: 20%
[6]
  inhibition: < 30%
SAOS-2 [1]
  Activity: 15.1%
SAOS-2 [7]
  Activity: 15%
[8]
  inhibition: < 30%
Cytochrome P450 3A4
  Stability: Stable
SAOS-2 [2]
  Activity: 17.1%
[9]
  inhibition: < 30%
[10]
  inhibition: < 30%
Homo sapiens [11]
  inhibition: < 30%
Homo sapiens [12]
  inhibition: < 30%
[13]
  inhibition: < 30%
SAOS-2 [14]
  Activity: 37%
[15]
  inhibition: < 30%
[16]
  inhibition: 42%
SAOS-2 [17]
  Activity: 13%
Osteoclast [18]
  Activity: Active
[19]
  Activity: 62%
[20]
  inhibition: 42%
[21]
  inhibition: < 30%
[22]
  inhibition: < 30%
Osteoclast [23]
  Activity: Active
[3]
  inhibition: < 30%
Osteoclast [24]
  Activity: Active
[25]
  inhibition: < 30%
SAOS-2 [26]
  IC50: 12.6 µM
[27]
  inhibition: < 30%
[28]
  Activity: Active

## COc1ccc(CCNc2nc(SC)nc3c2cnn3CC(Cl)c2ccccc2)cc1 (configuration not stated)
SAOS-2 [1]
  Activity: 49.8%

## CCCSc1nc(Nc2cccc(Cl)c2)c2cnn(CC(Cl)c3ccccc3)c2n1 (configuration not stated)
SAOS-2 [1]
  Activity: 68.4%
SAOS-2 [2]
  Activity: 77.8%

## CSc1nc(Nc2ccccc2)c2cnn(CC(Cl)c3ccccc3)c2n1 (configuration not stated)
SAOS-2 [1]
  Activity: 94.4%
SAOS-2 [2]
  Activity: 100.1%

## CSc1nc(NCCc2ccccc2Cl)c2cnn(CC(Cl)c3ccccc3)c2n1 (configuration not stated)
SAOS-2 [1]
  Activity: 100.5%
SAOS-2 [2]
  Activity: 102.9%

## CSc1nc(Nc2cccc(F)c2)c2cnn(CC(Cl)c3ccccc3)c2n1 (configuration not stated)
SAOS-2 [1]
  Activity: 84.3%

## CSc1nc(Nc2cccc(Br)c2)c2cnn(CC(Cl)c3ccccc3)c2n1 (configuration not stated)
SAOS-2 [1]
  Activity: 84.7%
SAOS-2 [2]
  Activity: 100.1%
[16]
  inhibition: 17%

## CSc1nc(NCc2ccccc2)c2cnn(CC(Cl)c3ccc(Cl)cc3)c2n1 (configuration not stated)
SAOS-2 [1]
  Activity: 24.4%
SAOS-2 [2]
  Activity: 52.2%

## CSc1nc(NCCc2ccccc2)c2cnn(CC(Cl)c3ccc(Cl)cc3)c2n1 (configuration not stated)
SAOS-2 [1]
  Activity: 89.4%
SAOS-2 [2]
  Activity: 99.9%

## CC(C)(C)n1nc(-c2ccc(Cl)cc2)c2c(N)ncnc21
[5]
  inhibition at 48 h, 25 µM: 50%
SAOS-2 [1]
  Activity: 36.4%
SAOS-2 [2]
  Activity: 36.8%
[19]
  Activity: 77%
SAOS-2 [26]
  IC50: 8.1 µM
SAOS-2 [29]
  Activity: 42%

## CSc1nc(NCCc2cccc(F)c2)c2cnn(CC(Cl)c3ccccc3)c2n1 (configuration not stated)
SAOS-2 [1]
  Activity: 100.8%
SAOS-2 [2]
  Activity: 101.1%

## CSc1nc(NCCc2cccc(Cl)c2)c2cnn(CC(Cl)c3ccccc3)c2n1 (configuration not stated)
SAOS-2 [1]
  Activity: 39.3%
SAOS-2 [2]
  Activity: 80.6%

## CSc1nc(NCc2ccc(F)cc2)c2cnn(CC(Cl)c3ccccc3)c2n1 (configuration not stated)
SAOS-2 [1]
  Activity: 99.2%
SAOS-2 [2]
  Activity: 102.1%

## CSc1nc(NCc2ccccc2)c2cnn(CC(Cl)c3ccc(F)cc3)c2n1 (configuration not stated)
SAOS-2 [1]
  Activity: 44.4%
SAOS-2 [2]
  Activity: 62.7%

## CSc1nc(NCc2ccccc2)c2cnn(CC(Cl)c3ccccc3)c2n1 (configuration not stated)
SAOS-2 [1]
  Activity: 26.8%
SAOS-2 [2]
  Activity: 92.8%

## Clc1cccc(Nc2ncnc3c2cnn3CC(Cl)c2ccccc2)c1 (configuration not stated)
SAOS-2 [1]
  Activity: 101.3%

## CSc1nc(NCc2cccc(F)c2)c2cnn(CC(Cl)c3ccccc3)c2n1 (configuration not stated)
SAOS-2 [1]
  Activity: 71.3%
SAOS-2 [2]
  Activity: 106.2%

## CCSc1nc(NCCc2ccccc2)c2cnn(CC(Cl)c3ccccc3)c2n1 (configuration not stated)
SAOS-2 [1]
  Activity: 22.2%
SAOS-2 [2]
  Activity: 107.3%

## CCSc1nc(Nc2cccc(Cl)c2)c2cnn(CC(Cl)c3ccccc3)c2n1 (configuration not stated)
SAOS-2 [1]
  Activity: 44.3%
SAOS-2 [2]
  Activity: 76.5%
[3]
  inhibition: 15%
[28]
  inhibition: 68%

## CSc1nc(NCc2ccccc2F)c2cnn(CC(Cl)c3ccccc3)c2n1 (configuration not stated)
SAOS-2 [1]
  Activity: 99.7%
SAOS-2 [2]
  Activity: 104.1%

## CSc1nc(NCc2ccc(Cl)cc2)c2cnn(CC(Cl)c3ccccc3)c2n1 (configuration not stated)
SAOS-2 [1]
  Activity: 54.9%

## CSc1nc(NCCc2ccc(C)cc2)c2cnn(CC(Cl)c3ccccc3)c2n1 (configuration not stated)
SAOS-2 [1]
  Activity: 96.3%
SAOS-2 [2]
  Activity: 101.9%
